Results as given in the supplement of paper PMC10307832.

Columns and labels:
Assay in all cases: relative viability (nuclei count vs DMSO), 5 days (fraction); higher = more cells survive
Doramapimod + AZD7762 = compound: Cc1ccc(-n2nc(C(C)(C)C)cc2NC(=O)Nc2ccc(OCCN3CCOCC3)c3ccccc23)cc1 [Doramapimod] + NC(=O)Nc1cc(-c2cccc(F)c2)sc1C(=O)N[C@H]1CCCNC1 [AZD7762] (partner 0.2 µM)
In short: (§1)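 Relative viability is defined as nuclei in treated wells over nuclei in vehicle wells. Duplicate plates were run and medians reported. Lung cancer cell lines in 1536-well plates were dosed by pin tool one day after seeding, with one drug or with a fixed anchor-drug dose plus five library-drug doses (not always all listed) in √10 steps, and nuclei were counted after 5 days.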

Doramapimod + Dasatinib = compound: Cc1ccc(-n2nc(C(C)(C)C)cc2NC(=O)Nc2ccc(OCCN3CCOCC3)c3ccccc23)cc1 [Doramapimod] + Cc1nc(Nc2ncc(C(=O)Nc3c(C)cccc3Cl)s2)cc(N2CCN(CCO)CC2)n1 [Dasatinib] (partner 0.075 µM)
In short: as §1

RAF265 + Decitabine = compound: Cn1c(Nc2ccc(C(F)(F)F)cc2)nc2cc(Oc3ccnc(-c4ncc(C(F)(F)F)[nH]4)c3)ccc21 [RAF265] + Nc1ncn([C@H]2C[C@H](O)[C@@H](CO)O2)c(=O)n1 [Decitabine] (partner 2 µM)
In short: as §1

Doramapimod + Phenformin = compound: Cc1ccc(-n2nc(C(C)(C)C)cc2NC(=O)Nc2ccc(OCCN3CCOCC3)c3ccccc23)cc1 [Doramapimod] + N=C(N)NC(=N)NCCc1ccccc1 [Phenformin] (partner 250 µM)
In short: as §1

Row | Cell Line | relative viability (Doramapimod + AZD7762; first compound 0.02 µM) | relative viability (Doramapimod + AZD7762; first compound 0.06325 µM) | relative viability (Doramapimod + AZD7762; first compound 0.2 µM) | relative viability (Doramapimod + AZD7762; first compound 0.6325 µM) | relative viability (Doramapimod + AZD7762; first compound 2 µM) | relative viability (Doramapimod + Dasatinib; first compound 0.02 µM) | relative viability (Doramapimod + Dasatinib; first compound 0.06325 µM) | relative viability (Doramapimod + Dasatinib; first compound 0.2 µM) | relative viability (Doramapimod + Dasatinib; first compound 0.6325 µM) | relative viability (Doramapimod + Dasatinib; first compound 2 µM) | relative viability (RAF265 + Decitabine; first compound 0.01 µM) | relative viability (RAF265 + Decitabine; first compound 0.03162 µM) | relative viability (RAF265 + Decitabine; first compound 0.1 µM) | relative viability (RAF265 + Decitabine; first compound 0.3162 µM) | relative viability (RAF265 + Decitabine; first compound 1 µM) | relative viability (Doramapimod + Phenformin; first compound 0.02 µM) | relative viability (Doramapimod + Phenformin; first compound 0.06325 µM) | relative viability (Doramapimod + Phenformin; first compound 0.2 µM) | relative viability (Doramapimod + Phenformin; first compound 0.6325 µM) | relative viability (Doramapimod + Phenformin; first compound 2 µM)
1 | 201T | 0.516 | 0.562 | 0.447 | 0.504 | 0.341 | 0.611 | 0.571 | 0.49 | 0.598 | 0.517 | 0.879 | 0.839 | 0.864 | 0.884 | 0.858 | 0.453 | 0.471 | 0.448 | 0.497 | 0.394
2 | A549 |  |  |  |  |  |  |  |  |  |  | 0.226 | 0.232 | 0.259 | 0.318 | 0.155 | 0.177 | 0.165 | 0.126 | 0.136 | 0.132
3 | A-427 | 0.77 | 0.732 | 0.743 |  | 0.561 | 0.728 | 0.768 | 0.733 |  | 0.672 | 0.549 | 0.507 | 0.514 | 0.37 | 0.238 | 0.269 | 0.464 | 0.388 |  | 0.318
4 | ABC-1 | 0.761 | 0.674 | 0.874 | 0.794 | 0.674 | 0.572 | 0.581 | 0.539 | 0.534 | 0.498 | 1.16 | 1.04 | 1.07 | 1.17 | 0.979 | 0.208 | 0.232 | 0.278 | 0.281 | 0.221
5 | BEN | 0.58 | 0.724 | 0.72 | 0.597 | 0.681 | 0.34 | 0.349 | 0.317 | 0.345 | 0.273 | 0.835 | 0.722 | 0.769 | 0.737 | 0.655 | 0.29 | 0.245 | 0.27 | 0.242 | 0.278
6 | CAL-12T | 0.675 | 0.765 | 0.696 | 0.596 | 0.535 | 0.521 | 0.371 | 0.306 | 0.44 | 0.348 |  |  |  |  |  | 0.552 | 0.593 | 0.621 | 0.625 | 0.479
7 | COR-L23 |  |  |  |  |  | 0.527 | 0.554 | 0.5 | 0.545 | 0.513 | 0.553 | 0.399 | 0.436 | 0.377 | 0.313 | 0.436 | 0.467 | 0.398 | 0.422 | 0.391
8 | COR-L 105 |  |  |  |  |  | 0.316 | 0.305 | 0.302 | 0.376 | 0.367 | 0.688 | 0.773 | 0.599 | 0.497 | 0.436 | 0.513 | 0.461 | 0.443 | 0.619 | 0.453
9 | ChaGo-K-1 | 0.884 | 0.846 | 0.894 | 0.779 | 0.768 | 0.51 | 0.583 | 0.526 | 0.566 | 0.586 | 0.584 | 0.546 | 0.512 | 0.516 | 0.437 | 0.476 | 0.507 | 0.459 | 0.534 | 0.428
10 | EKVX | 0.679 | 0.676 | 0.717 | 0.635 | 0.678 | 0.544 | 0.49 | 0.561 | 0.584 | 0.491 | 0.404 | 0.318 | 0.39 | 0.201 | 0.281 | 0.256 | 0.24 | 0.253 | 0.179 | 0.204
11 | EMC-BAC-2 | 1.07 | 1.16 | 1.07 | 1.07 | 0.965 | 0.451 | 0.279 | 0.297 | 0.419 | 0.283 | 1.05 | 0.842 | 0.958 | 0.832 | 0.547 | 0.53 | 0.606 | 0.586 | 0.678 | 0.503
12 | EPLC-272H | 0.209 | 0.209 | 0.254 |  | 0.22 | 0.438 | 0.326 | 0.435 | 0.479 | 0.332 | 0.409 | 0.34 | 0.371 | 0.243 | 0.231 | 0.294 | 0.243 | 0.356 | 0.291 | 0.274
13 | H3255 | 1.01 | 1 | 0.972 | 0.956 | 0.762 | 0.296 | 0.56 | 0.414 | 0.314 | 0.351 | 0.666 | 0.564 | 0.682 | 0.198 | 0.43 | 0.356 | 0.345 | 0.391 | 0.366 | 0.411
14 | HARA | 0.341 | 0.235 | 0.397 | 0.536 | 0.213 | 0.194 | 0.274 | 0.277 |  | 0.199 | 0.652 | 0.468 | 0.53 | 0.426 | 0.414 | 0.464 | 0.495 | 0.464 |  | 0.425
15 | HCC-15 | 1.35 | 1.17 | 1.23 |  | 1.17 | 0.56 | 0.598 | 0.634 |  | 0.595 | 0.714 | 0.613 | 0.524 | 0.545 | 0.42 | 0.481 | 0.467 | 0.478 |  | 0.365
16 | HCC-44 | 1.06 | 1.02 | 1.04 | 1.01 | 1.07 |  |  |  |  |  | 0.945 | 0.951 | 0.95 | 0.967 | 0.947 | 0.267 | 0.247 | 0.22 |  | 0.241
17 | HCC-78 | 0.518 | 0.642 | 0.705 | 0.756 | 0.75 | 0.359 | 0.431 | 0.364 | 0.382 | 0.304 | 0.852 | 0.73 | 0.752 | 0.731 | 0.669 | 0.704 | 0.819 | 0.743 | 0.813 | 0.543
18 | HCC-366 | 0.387 | 0.271 | 0.33 | 0.34 | 0.213 | 0.605 | 0.549 | 0.548 | 0.548 | 0.458 | 0.321 | 0.319 | 0.402 | 0.331 | 0.213 | 0.623 | 0.605 | 0.671 | 0.635 | 0.547
